These results are taken from patent US20200404916A1, “METHOD OF REDUCING CROP DAMAGE” (BAYER AKTIENGESELLSCHAFT, priority 2018, published 2020).

Series [1] concerns winter wheat, TRZAW. As to the kind of experiment: Pre-emergence greenhouse pot test, visual scoring of crop damage on winter wheat. Type of series: in vivo. As to the method: (§1) For the safener seed treatment, sufficient seeds were weighed into screw top glass bottles approximately twice the volume of the seeds.
(§2) The safener (mefenpyr-diethyl, formulated as suspension concentrate (SC)) was weighed out so that the required rates (g a.i./kg seed) would be obtained, dissolved in water (1 ml water per 10 g of seeds), and added to the seeds to produce a slurry.
(§3) The bottles were capped and then placed in an overhead shaker (set at medium speed for up to 1 hour) so that the seeds were evenly coated with the slurry. The bottles were uncapped and the seeds were sown as described above.
(§4) For the seed treatment process, the blind formulation (the SC formulation without the safener mefenpyr-diethyl) was used as seed treatment as described above.
The compounds were sprayed to the soil surface as an aqueous suspension at an equivalent water application rate of 300 l/ha.
(§5) The combination of herbicide and safener was applied as a tank mix.
(§6) After application, the test plants were kept in the greenhouse under good growth conditions.
(§7) Values in the table below are mean values from at least 3 replicates.

The test system of series [2] is winter wheat, TRZAW. As to the kind of experiment: Post-emergence greenhouse pot test, visual scoring of crop damage on winter wheat. Type of series: in vivo.
Description: Post-emergence application was done when the plants had reached growth stage BBCH11 (BBCH is the international coding system for the growth stage of crops and weeds).
The safener (mefenpyr-diethyl) was formulated as wettable powder (WP).
The compounds were sprayed onto the green parts of the plants as an aqueous suspension at an equivalent water application rate of 300 l/ha.
as §5, §6, §7, §1, §2, §3, §4
Post-emergence application of the herbicide was done when the plants had reached growth stage BBCH11.
Post-emergence application was done when the plants had reached growth stage BBCH11.

As for Diflufenican [Herbicide post-em.], the “% crop damage” value in series [1] (herbicide 200 g/ha pre-emergence, no safener, 14 days after application, mean of at least 3 replicates) was determined as 25%; in series [2] (herbicide 200 g/ha post-emergence (BBCH11), no safener, 14 days after application, mean of at least 3 replicates), 20%.

For `CCOC(=O)C1=NN(c2ccc(Cl)cc2Cl)C(C)(C(=O)OCC)C1` (stereo not drawn) [Safener in tank mix, ethyl 1-(2,4-dichlorophenyl)-5-(ethoxycarbonyl)-5-methyl-2-pyrazoline-3-carboxylate], the “% crop damage” value in series [1] (safener 200 g/ha in tank mix alone, pre-emergence, no herbicide, 14 days after application) is given as 5%; in series [1] (safener seed treatment 0.5 g/kg alone, no herbicide, pre-emergence test series) it was 5%; in series [2] (safener 200 g/ha in tank mix alone, post-emergence (BBCH11), no herbicide, 14 days after application) it was 5%; in series [2] (safener seed treatment 0.5 g/kg alone, no herbicide, post-emergence test series), 0%.
